Here are results for 1 molecule from patent US20220411495A1, “POSITIVE ALLOSTERIC MODULATORS OF THE CALCIUM-SENSING RECEPTOR” (VIB VZW, priority 2019, published 2022).

The target in the test is T1, CaSR 7-transmembrane domain allosteric binding site (Homo sapiens, UniProt P41180).
T1 sequence (P41180 20-1078): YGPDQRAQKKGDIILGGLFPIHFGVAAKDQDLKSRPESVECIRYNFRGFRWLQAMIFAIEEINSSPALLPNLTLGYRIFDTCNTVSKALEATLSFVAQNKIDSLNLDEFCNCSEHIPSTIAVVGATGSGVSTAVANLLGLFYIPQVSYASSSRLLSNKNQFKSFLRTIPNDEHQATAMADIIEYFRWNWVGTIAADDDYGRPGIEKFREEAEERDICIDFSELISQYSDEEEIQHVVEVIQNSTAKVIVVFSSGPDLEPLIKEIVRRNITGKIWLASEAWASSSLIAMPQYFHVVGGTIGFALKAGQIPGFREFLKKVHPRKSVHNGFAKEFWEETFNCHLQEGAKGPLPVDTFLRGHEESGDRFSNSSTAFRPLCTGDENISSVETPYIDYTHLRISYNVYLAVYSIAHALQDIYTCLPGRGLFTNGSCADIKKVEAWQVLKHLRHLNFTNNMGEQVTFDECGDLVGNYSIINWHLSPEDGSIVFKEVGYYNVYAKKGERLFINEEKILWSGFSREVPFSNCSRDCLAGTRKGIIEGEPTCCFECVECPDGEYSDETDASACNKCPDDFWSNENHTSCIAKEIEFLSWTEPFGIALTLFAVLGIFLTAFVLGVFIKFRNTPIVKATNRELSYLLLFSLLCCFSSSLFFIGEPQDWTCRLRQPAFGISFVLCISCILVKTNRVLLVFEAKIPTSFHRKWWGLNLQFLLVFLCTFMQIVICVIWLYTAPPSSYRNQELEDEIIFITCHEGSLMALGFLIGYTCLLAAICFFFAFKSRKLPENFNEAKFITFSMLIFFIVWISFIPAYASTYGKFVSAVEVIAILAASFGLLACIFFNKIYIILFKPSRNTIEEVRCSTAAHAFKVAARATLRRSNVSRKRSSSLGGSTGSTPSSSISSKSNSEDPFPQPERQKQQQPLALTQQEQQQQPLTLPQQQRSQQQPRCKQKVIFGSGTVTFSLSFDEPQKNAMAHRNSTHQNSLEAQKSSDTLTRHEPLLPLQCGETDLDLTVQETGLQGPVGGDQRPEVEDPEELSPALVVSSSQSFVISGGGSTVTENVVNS
Briefly: [3H]evocalcet radioligand displacement. How it is done:
For the seven different nanobodies with potencies in the 10 to 600 nM range, further characterization of their recognition site on the CaSR antigen was performed, since the identification of the nanobody binding-sites at the CaSR is key to understand their interaction and mode-of-action at a molecular and structural level, and will further aid in the development of second-generation nanobodies with enhanced pharmacological parameters. Nanobodies belonging to each family of the five different nanobody families are expected to interact with distinct regions of the CaSR.

Consider `CC(C)(Cc1ccc2ccccc2c1)NC[C@@H](O)COc1cccc(Cl)c1C#N` [NPS 2143], for which the “Displacement of [3H]evocalcet binding” value is on record as “did displace”.
